Where two headings read alike, the source gives them in different places.
Columns and labels:
[1] = test system: cholesterol content of serum lipoprotein (VLDL, LDL, HDL); assay: Cholesterol content of serum lipoprotein of rats treated orally for 14 days; format: in vivo; conditions: Sprague-Dawley rats, orally 14 days, 20 mg/kg/day; control 1% CMC = 100
Experimental: The cholesterol content of serum lipoprotein of
Sprague-Dawley Rats treated orally for 14 days at 20 mg/kg/day

[2] = test system: serum cholesterol and triglyceride levels; assay: Serum testing of normal rats: serum cholesterol and triglyceride levels, oral; format: in vivo; conditions: Sprague-Dawley male rats, 20 mg/kg/day orally
Description: Test solution of Compounds A, F, J, M, N and O were suspended in an aqueous solution of 1% CMC, homogenized and administered orally to six Sprague-Dawley male rats, which each weighted approximately 350 grams. Administration of the compounds was by an intubation needle. The rats were each fed with 20 milligrams of Compounds A, F, J, M, N and O per kilogram of body weight per day for 14 days. Similarly, six Sprague-Dawley male rats of approximately the same weight (that used for testing F weighed approximately 160 grams) were fed similar volumes of the same aqueous 1% CMC solution without the active agents, also orally, administered by intubation needle. In addition, as a control, a similar group of six male Sprague-Dawley rats were untreated.
On Days 7 and 14, blood was obtained from each of the rats of the three groups by tail vein bleeding. The blood obtained was separated by centrifugation for three minutes. Serum cholesterol and triglyceride levels were determined in accordance with the procedure of Example 6.

[3] = test system: serum cholesterol and serum triglyceride levels; assay: Testing of hyperlipidemic mice: serum cholesterol and serum triglyceride levels on atherogenic diet; format: in vivo; conditions: hyperlipidemic CF1 male mice, 20 mg/kg/d ip, Day 12; diet-hyperlipidemic = 100
Experimental: A group of six CF1 male mice (about 25 g) were placed on a commercial diet (U.S. Biochemical Corporation BAsal Atherogenic Test Diet) which produced a "hyperlipidemic" state. That is, the average serum cholesterol level in the group of treated mice was raised from 122 to 375 mg percent and triglyceride levels were raised from 137 to 367 mg/dL.

in vivo = conditions: mouse, ip
[4] = test system: serum cholesterol and serum triglyceride levels; assay: Testing of normal mice: serum cholesterol and serum triglyceride levels, compounds 20 mg/kg/d ip for 16 days; format: in vivo; conditions: CF1 male mice; for response vs control in vivo at 20 mg/kg/day: Mus musculus
Experimental: The following compounds were tested for their hypolipidemic activity in CF1 mice.
Compounds A-V as defined above, were suspended in an aqueous 1 percent carboxymethylcellulose (CMC) solution and homogenized. Each of the so prepared compounds were administered to a group of six CF1 male mice, each weighing approximately 25 grams, intra-peritioneally for 16 days. Each of these compounds were provided in a dosage of 20 mg/kg/d ip. On Days 9 and 16 blood was obtained by tail vein bleeding. The blood serum so obtained was separated by centrifugation for three minutes. Serum cholesterol levels were determined by a modification of the Liebermann-Burchard reaction (Ness, Clin. Chim. Acta., Vol. 10, 229 [1964]). Serum triglyceride levels were determined on Day 16 by use of the Fisher, Hycel Triglyceride Test Kit.
In addition to the above-described treated mice, an untreated control group of six mice were similarly tested on Days 9 and 16 to determine their serum cholesterol and trigylceride blood levels. Based on the results obtained for the untreated control group, the percent control, based on serum cholesterol and serum triglyceride levels of the treated mice compared to the untreated mice, was obtained. Table 1 reports this percent control, including standard deviation, indicating the level of confidence of these numbers.

mice = assay: LD50 in mice as single injection IP
[5] = 216 h, Day 9, ± standard deviation, read-out: Serum Cholesterol, Day 9 (percent control)
[6] = 384 h, Day 16, ± standard deviation, read-out: Serum Cholesterol, Day 16 (percent control)
[7] = 384 h, Day 16, ± standard deviation, read-out: Serum Triglyceride, Day 16 (percent control)

SMILES | HDL cholesterol, Percent of Control [1] | LDL cholesterol, Percent of Control [1] | VLDL cholesterol, Percent of Control [1] | Serum Cholesterol, Day 7, Percent of Control [2] | Serum Triglyceride, Day 7, Percent of Control [2] | Serum Cholesterol, Day 14, Percent of Control [2] | Serum Triglyceride, Day 14, Percent of Control [2] | Serum Cholesterol, Percent of Control, hyperlipidemic mice [3] | Serum Triglyceride, Percent of Control, hyperlipidemic mice [3] | LD50 (in vivo) | response vs control in vivo at 20 mg/kg/day [4, 5] | response vs control in vivo at 20 mg/kg/day [4, 6] | response vs control in vivo at 20 mg/kg/day [4, 7] | Serum Cholesterol, Day 9 (percent control) ([4]; Day 9, ± standard deviation) | Serum Cholesterol, Day 16 (percent control) ([4]; Day 16, ± standard deviation) | Serum Triglyceride, Day 16 (percent control) ([4]; Day 16, ± standard deviation) | LD50 value in mice as single injection IP (mice)
CC(=O)n1[nH]c(=O)n(-c2ccccc2)c1=O [A, 4-phenyl-1-methylcarbonyl-1,2,4-triazolidine-3,5-dione] | 441% of Control | 74% of Control | 44% of Control | 89% of Control | 62% of Control | 69% of Control | 48% of Control | 41% of Control | 40% of Control |  |  |  |  |  |  |  | 
CCOC(=O)c1nc(=O)n(-c2ccccc2)c(=O)[nH]1 [Compound N, 3-phenyl-6-ethoxycarbonyl-1,3,5-triazine-2,4(1 --H,3 --H)-dione] | 409% of Control | 87% of Control |  | 71% of Control | 61% of Control | 67% of Control | 53% of Control | 50% of Control | 46% of Control | > 500 mg/kg |  |  |  |  |  |  | 
COc1ccc(-n2c(=O)[nH][nH]c2=O)cc1 [F, 4-(4-methoxyphenyl)-1,2,4-triazolidine-3,5-dione] | 141% of Control | 78% of Control | 59% of Control | 77% of Control | 87% of Control | 66% of Control | 81% of Control |  |  |  |  |  |  |  |  |  | 
O=C(Nc1ccccc1)n1[nH]c(=O)n(-c2ccccc2)c1=O [I, 4-phenyl-1-N-phenylcarbamoyl-1,2,4-triazolidine-3,5-dione] |  |  |  |  |  |  |  |  |  |  | 79 ± 7% | 74 ± 6% | 68 ± 6% |  |  |  | 
O=c1[nH][nH]c(=O)n1-c1ccc(Cl)cc1 [J, 4-(4-chlorophenyl)-1,2,4-triazolidine-3,5-dione] | 194% of Control | 43% of Control | 98% of Control | 59% of Control | 61% of Control | 60% of Control | 52% of Control | 46% of Control | 49% of Control |  |  |  |  |  |  |  | 
CCOC(=O)C1n2c(=O)n(-c3ccc(Cl)cc3)c(=O)n21 [L, 3-(4-chlorophenyl)-6-ethoxyacarbonyl-1,3,5-triazabicyclo[3.1.0]hexane-2,4-dione] |  |  |  |  |  |  |  |  |  |  |  |  |  | 74 ± 3 percent control | 56 ± 5 percent control | 66 ± 7 percent control | 
CCOC(=O)C1n2c(=O)n(-c3ccccc3)c(=O)n21 [M, 3-phenyl-6-ethoxycarbonyl-1,3,5-triazabicyclo[3.1.0]hexane-2,4-dione] | 340% of Control | 67% of Control | 71% of Control | 70% of Control | 36% of Control | 36% of Control | 54% of Control | 46% of Control | 54% of Control |  |  |  |  | 62 ± 6 percent control | 57 ± 5 percent control | 59 ± 6 percent control | > 500 mg/kg
CCOC(=O)c1nc(=O)n(-c2ccc(Cl)cc2)c(=O)[nH]1 [O, 3-(4-chlorophenyl)-6-ethoxycarbonyl-1,3,5-triazine-2,4(1H,3 --H)-dione] | 113% of Control | 78% of Control | 27% of Control | 84% of Control | 82% of Control | 60% of Control | 77% of Control |  |  |  |  |  |  |  |  |  | 
CCCCCC(=O)n1c(=O)n(CCCC)c(=O)n1C(=O)CCCCC [T, 4-(4-n-butyl)-1,2 dipentylcarbonyl-1,2,4-triazolidine-3,5-dione] |  |  |  |  |  |  |  |  |  |  | 69% | 49% | 53% |  |  |  | 
